# According to patent publication US12337000B2, “Therapeutic modulators of the reverse mode of ATP synthase” (priority 2017, dated 2025):
# Entries after “also recorded” stand apart in the source; their conditions may differ. Where a name gives a salt, the structure may show the parent alone. Read-outs that look alike come from different tables or passages of the source.
# Tests used:
# F1F0 ATP hydrolase = target: T1, F1F0 ATP hydrolase (Bos taurus, UniProt P00829+P19483); details: cited from earlier work
# T1 construct: from tissue; host or cells: sub-mitochondrial particles (SMPs)
# [1] = system: 59 cancer cell lines (NCI-60); assay: NCI-60 one-dose in vitro assay; type: cell-based, human
# Text: FIGS. 1, 2, 3, 4, 5, 6, 7, 8 show results from the NCI-60 one-dose in vitro assay at the Developmental Therapeutics Program (DTP), at the National Cancer Institute (NCI, Bethesda, MD, USA). Its protocol is well known to those of the art, and it tests the effect, if any, of a test compound on the growth/survivability of a cancer cell line as compared to the no compound control. […] However, a constant is that there is always representative cell lines from leukemia, melanoma and cancers of the lung, colon, brain, ovary, breast, prostate and kidney. In a one-dose NCI compound test report, NCI report a number for each cell line, which they call “Growth Percent”, which is its growth relative to the no-compound control, and relative to the time zero number of cells. This reported parameter allows detection of both growth inhibition (values between 0 and 100) and lethality (values less than 0). For example, an NCI “Growth Percent” value of 100 means no growth inhibition. Value of 40 means 60% growth inhibition. Value of 0 means no net growth over the course of the experiment. Value of −40 means 60% lethality. Value of −100 means all cells are dead. I don't present NCI one-dose data in this original format. Instead, if the NCI “Growth Percent” value for a cell is positive, it is manipulated: [100 minus this original NCI-60 “Growth Percent” data point], to yield the percentage “Growth Inhibition”. If the original NCI “Growth Percent” value for a cell is negative, it is made positive to be the percentage of original cancer cells (at time zero) killed: “Percentage Killed” {and in these cases, of course, all growth has been inhibited, so percentage “Growth Inhibition” is then specified to be 100% for this cancer cell line}. In my one-dose figures, “Growth Inhibition” (0-100%) is presented on the x-axis and, if applicable, “Percentage Killed” (0-100%) further along on the x-axis. The latter is applicable when there is not just cancer growth inhibition but a reduction in the number of cancer cells from the start time i.e. when the compound is not merely slowing cancer growth, but is actively reducing the number of cancer cells from the starting number. In cases where there is only growth inhibition, only “Growth inhibition” is presented on the x-axis.
# NCI-60 tests are performed at a controlled temperature of 37° C..
# To perform the anti-cancer testing reported: BMS-199264 hydrochloride was purchased from Sigma-Aldrich. BTB06584 was purchased from AdooQ Bioscience, Irvine, CA, USA. Compounds 19a (separated into 6a and 6b stereoisomers) and 31 were synthesized by reaction schemes disclosed herein. Almitrine dimesylate was purchased from Ak Scientific, Palo Alto, CA, USA.
# F1F0-ATP hydrolysis = target: T2, F1F0-ATP hydrolysis (Homo sapiens, UniProt P06576+P25705); details: cited from earlier work
# T2 construct: BTB06584 potency information (is not an EC50) is from a whole cell study [13]; endogenous in cells
# [2] = cited from earlier work
# [3] = cited from earlier work; remark: listed apart in the source
# [4] = from [8], Formula (II), read-out: EC50 F1F0 ATP hydrolase
Structure (SMILES),EC50 (F1F0 ATP hydrolase; [4]) [nM],other results
"O=S(=O)(c1cc(Cl)ccc1Cl)N1Cc2ccccc2N(Cc2cnc[nH]2)C(CCc2ccccc2)C1 (centres unmarked) [2,5-di-Cl—Ph, SO2,5-yl]",158,–
"N#CN=C(Nc1ccccc1Cl)NC(Cn1ccnc1)c1ccc(Cl)cc1Cl (centres unmarked) [2-Cl, CN]",–,"EC50 (F1F0 ATP hydrolase; Further Examples [5], Formula (I), read-out: EC50 F1F0 ATP hydrolase): 2230 nM"
"N#Cc1ccc(S(=O)(=O)N2Cc3ccccc3N(Cc3c[nH]cn3)C(CCc3ccccc3)C2)c(Cl)c1 (centres unmarked) [2-Cl-4-CN—Ph, SO2,5-yl]",939,–
"O=[N+]([O-])c1cccc(S(=O)(=O)N2Cc3ccccc3N(Cc3cnc[nH]3)C(CCc3ccccc3)C2)c1 (centres unmarked) [3-NO2—Ph, SO2,5-yl]",423,–
"N#Cc1ccc(S(=O)(=O)N2Cc3ccccc3N(Cc3cnc[nH]3)C(CCc3ccccc3)C2)cc1 (centres unmarked) [4-CN—Ph, SO2,5-yl]",255,–
"Cc1nc(CN2c3ccccc3CN(S(=O)(=O)c3ccc(F)cc3)CC2CCc2ccccc2)c[nH]1 (centres unmarked) [4-F—Ph, SO2,2-Me-5-yl]",9620,–
"Cc1nc[nH]c1CN1c2ccccc2CN(S(=O)(=O)c2ccc(F)cc2)CC1CCc1ccccc1 (centres unmarked) [4-F—Ph, SO2,4-Me-5-yl]",151,–
"O=S(=O)(c1ccc(F)cc1)N1Cc2ccccc2N(Cc2c[nH]cn2)C(CCc2ccccc2)C1 (centres unmarked) [4-F—Ph, SO2,5-yl]",221,–
"O=S(=O)(c1ccc(O)cc1)N1Cc2ccccc2N(Cc2cnc[nH]2)C(CCc2ccccc2)C1 (centres unmarked) [4-OH—Ph, SO2,5-yl]",667,–
"COc1ccc(S(=O)(=O)N2Cc3ccccc3N(Cc3c[nH]cn3)C(CCc3ccccc3)C2)cc1 (centres unmarked) [4-OMe—Ph, SO2,5-yl]",77,–
"Cc1nc[nH]c1CN1c2ccccc2CN(Cc2ccc(C(C)(C)C)cc2)CC1CCc1ccccc1 (centres unmarked) [4-t-Bu—Ph, CH2,4-Me-5-yl]",2350,–
"CC(C)(C)c1ccc(CN2Cc3ccccc3N(Cc3cnc[nH]3)C(CCc3ccccc3)C2)cc1 (centres unmarked) [4-t-Bu—Ph, CH2,5-yl]",2140,–
"CC(C)(C)c1ccc(S(=O)(=O)N2Cc3ccccc3N(Cc3ncc[nH]3)C(CCc3ccccc3)C2)cc1 (centres unmarked) [4-t-Bu—Ph, SO2,2-yl]",> 10000,–
"CC(C)(C)c1ccc(S(=O)(=O)N2Cc3ccccc3N(Cc3c[nH]cn3)C(CCc3ccccc3)C2)cc1 (centres unmarked) [4-t-Bu—Ph, SO2,5-yl]",8,–
CC1(C)Oc2ccc(S(=O)(=O)N3CCCCC3)cc2[C@@H](N(Cc2ncc[nH]2)c2ccc(Cl)cc2)[C@@H]1O.Cl [BMS-199264 hydrochloride],–,anti-cancer activity (in words) ([1]; 10 μM): Anti-cancer activity; anti-cancer activity (in words) ([1]; 100 μM): Anti-cancer activity
O=C(Oc1cc(S(=O)(=O)c2ccccc2)ccc1[N+](=O)O)c1ccc(Cl)cc1 [BTB06584],–,"anti-cancer activity (in words) ([1]; 10 μM): none and No anti-cancer activity; anti-cancer activity (in words) ([1]; 100 μM): observed; also recorded: Anti-cancer activity; inhibitory potency for F1F0-ATP hydrolysis (in words) (F1F0-ATP hydrolysis; 10 μM [13]): none; concentration required to inhibit F1F0-ATP hydrolysis (F1F0-ATP hydrolysis; whole cell study [13], not an EC50): > 100 µM"
"O=S(=O)(c1cccc2nonc12)N1Cc2ccccc2N(Cc2cnc[nH]2)C(CCc2ccccc2)C1 (centres unmarked) [Benzofurazan-7-yl, SO2,5-yl]",1780,–
"O=S(=O)(Cc1ccccc1)N1Cc2ccccc2N(Cc2c[nH]cn2)C(CCc2ccccc2)C1 (centres unmarked) [Bn, SO2,5-yl]",2410,–
"O=S(=O)(N1Cc2ccccc2N(Cc2c[nH]cn2)C(CCc2ccccc2)C1)C(F)(F)F (centres unmarked) [CF3, SO2,5-yl]",77,–
N#Cc1cccc(C(=O)/N=C(\Nc2ccc(Cl)cc2)NC(Cn2ccnc2)c2ccc(Cl)cc2Cl)c1 (centres unmarked) [Compound 19a],–,"EC50 (F1F0 ATP hydrolase; SMP studies in [5-8], read-out: EC50 F1F0 ATP hydrolysis / hydrolase): 33 nM"
"O=S(=O)(c1cccc2ccccc12)N1Cc2ccccc2N(Cc2cnc[nH]2)C(CCc2ccccc2)C1 (centres unmarked) [Naphth-1-y1, SO2,5-yl]",338,–
"O=S(=O)(c1ccccc1)N1Cc2ccccc2N(Cc2cnc[nH]2)C(CCc2ccccc2)C1 (centres unmarked) [Ph, SO2,5-yl]",282,–
"O=S(=O)(c1cccc2cccnc12)N1Cc2ccccc2N(Cc2c[nH]cn2)C(CCc2ccccc2)C1 (centres unmarked) [Quinolin-8-yl, SO2,5-yl]",2930,–
"O=S(=O)(c1cccs1)N1Cc2ccccc2N(Cc2cnc[nH]2)C(CCc2ccccc2)C1 (centres unmarked) [Thiophen-2-yl, SO2,5-yl]",636,–
N.N.O=C([O-])C1(C(=O)[O-])CCC1.[Pt+2] [carboplatin],–,"LD50 ([2]; mice, intraperitoneal injection (IP)): 118 mg/kg"
CN(C)CCCN1c2ccccc2CCc2ccc(Cl)cc21 [clomipramine HCl],–,"LD50 {mouse, IV} ([2]; mouse, in vivo, iv): 22 mg/kg"
CC[C@H]1/C=C/C=C/C[C@@H](C)[C@H](O)[C@@](C)(O)C(=O)[C@@H](C)[C@H](O)[C@@H](C)C(=O)[C@@H](C)[C@H](O)[C@@H](C)/C=C/C(=O)O[C@@H]2[C@H](C)[C@H](CC1)O[C@]1(CC[C@H](C)[C@H](C[C@@H](C)O)O1)[C@H]2C [oligomycin],–,"time within which healthy rats are killed ([3]; 1 mg/kg intraperitoneal, n=10 [15]): ≤ 48 h; LD33 ([3]; healthy rats, intraperitoneal injection [15]): 0.5 mg/kg"
